In US7820106B2, “Sensor platform, apparatus incorporating the platform and process using the platform” (Novartis AG, priority 1999, dated 2010):
Where a name gives a salt, the structure may show the parent alone. {Cy5} = Cy5 fluorescent dye label

Experiments:
[1] = system: GAPDH (rat); experiment: Gene expression analysis on ER chip: CYP 450 induction in rat liver; conditions: rat liver cDNA, 80 mg/kg daily on 4 consecutive days, normalized treated/control, mean of 10 replicates
Procedure: (§1) Sensor platforms (dimensions 18×18 mm^2) of the type described with reference to FIG. 2 wee first sonicated twice in chloroform (FLUKA, “purriss.”) and subsequently twice in isopropanol (Merck, “Uvasol”); each for 15 min. The platform were then dried in vacuum and cleaned in a UV cleaner for 30 min (Boeckel industries Inc, model 135500). O-xylene was heated to 75° C. (stirring) and 2% v/v 3-glycidoxypropyl trimethoxysilane (Fluka, “purum”) as well as 0.2% v/v N-ethyldiisopropylamine (Fluka, “purum”) were added to the heated solvent (stirring). The platforms were mounted into racks and then incubated for 7 h in the solution at 75° C. (stirring). Subsequently, the platforms were sonicated three times in fresh acetonitrile (Fluka, “HPLC grade”), each for 15 min. The platforms were then sonicated in a solution of 2% v/v 3-amino-1-propanol (Fluka, “purum”) in acetonitrile for 15 min and then incubated in the same solution over night at room temperature (stirring). Next day, the platforms were first sonicated three times for 15 min in fresh isopropanol (Fluka, “HPLC grade”) and then three times for 15 min in flesh methanol (Merck, “Uvasol”). Finally, the platforms were dried and stored in vacuum. b) Immobilization of Recognition Elements Arrays consisting of 10 different cDNAs (each cDNA 10 replicates: CYP 450 1A1, CYP 450 2B1 EST., CYP 450 2B1, CYP 450 2B2, CYP 450 3A1 human, CYP 450 3A2, CYP 450 4A1, β-actin, GAPDH, external standard) were printed on the platforms with an ink-jet printer (Microdrop GmbH, Norderstedt, Germany). The concentration of the cDNA solutions was 50 ng/μL. The diameter (10 ink-jet droplets/position) was about 250 μm and pitch of the spots was about 500 μm. Therefore, the overall dimension of the 10×10 arrays was about 5×5 mm^2. The arrays were printed in the centre of the platforms with the dimensions (18×18 mm^2). Subsequently, the platforms were incubated over night in a closed container in saturated water vapor atmosphere. Next day, the incubated chips can be baked for a defined period, say 1 minute at 80° C.

[2] = system: CYP 450 1A1 (rat); experiment: as above; conditions: rat liver cDNA, 80 mg/kg daily on 4 consecutive days, normalized treated/control, mean of 10 replicates
Procedure: as §1

[3] = system: CYP 450 4A1 (rat); experiment: as above; conditions: rat liver cDNA, 80 mg/kg daily on 4 consecutive days, normalized treated/control, mean of 10 replicates
Procedure: as §1

[4] = system: CYP 450 2B2 (rat); experiment: as above; conditions: rat liver cDNA, 80 mg/kg daily on 4 consecutive days, normalized treated/control, mean of 10 replicates
Procedure: as §1

[5] = system: CYP 450 3A2 (rat); experiment: as above; conditions: rat liver cDNA, 80 mg/kg daily on 4 consecutive days, normalized treated/control, mean of 10 replicates
Procedure: as §1

[6] = system: CYP 450 2B1 EST.(rat); experiment: as above; conditions: rat liver cDNA, 80 mg/kg daily on 4 consecutive days, normalized treated/control, mean of 10 replicates
Procedure: as §1

[7] = system: CYP 450 3A1 (human); experiment: as above; conditions: rat liver cDNA, 80 mg/kg daily on 4 consecutive days, normalized treated/control, mean of 10 replicates
Procedure: as §1

[8] = system: β-actin (rat); experiment: as above; conditions: rat liver cDNA, 80 mg/kg daily on 4 consecutive days, normalized treated/control, mean of 10 replicates
Procedure: as §1

[9] = system: CYP 450 2B1 (rat); experiment: as above; conditions: rat liver cDNA, 80 mg/kg daily on 4 consecutive days, normalized treated/control, mean of 10 replicates
Procedure: as §1

[10] = system: cPM (capture perfect match) oligonucleotide; experiment: Oligonucleotide microchip hybridization (SNP discrimination), cPM capture spots; type: binding; conditions: 30 pM analyte, 30 min incubation, room temperature, fluorescence at resonance position
Procedure: (§2) Sensor platforms (dimensions 18×18 mm2) of the type described with reference to FIG. 2 we first sonicated twice in chlororform (FLUKA, “purum”) and subsequently twice in isopropanol (Merck, “Uvasol”), each 15 min. […] O-xylene was heated to 75° C. […] (stirring). Subsequently, the platforms were washed three times with fresh acetonitrile (Fluka, “HPLC grade”) each for 15 min. Finally the platforms were dried and stored under vacuum. b. Immobilization of Capture Elements
(§3) Two different amino-modified oligonucleotides (capture probes) were printed in a checkerboard-like layout (5×5=25 spots) onto the silanized platforms. […]
(§4) The concentration of the analyte solutions was 30 pM each. f. […] After 30 min of incubation, the platform was washed with 1 ml of HB and a fluorescence image (“PM” in FIG. 9a) was taken in the resonance position of the chip. Subsequently, the bound fluorescence labeled oligonucleotides were removed (stripped) by injection of 2×1 ml of an aqueous 50% urea solution with 2 min of delay between the injections. After additional 2 min the chip was washed by injection of 2×1 ml HB with 2 min delay between the injections and a fluorescence image (“regeneration” in FIG. 9b) was taken in the resonance position of the chip. […] After 30 min of incubation, the platform was again washed with 1 ml of 1B and a fluorescence image (“MM” in FIG. 9c) was taken in the resonance position of the chip. […]

[11] = system: cMM (capture mismatch) oligonucleotide; experiment: Oligonucleotide microchip hybridization (SNP discrimination), cMM capture spots; type: binding; conditions: 30 pM analyte, 30 min incubation, room temperature, fluorescence at resonance position
Procedure: as §2, §3, §4

[12] = system: cPM and cMM capture oligonucleotides; experiment: Oligonucleotide microchip SNP discrimination, cPM versus cMM spots; type: binding; conditions: 30 pM analyte, 30 min incubation, room temperature
Procedure: as §2
Two different amino-modified oligonucleotides (capture probes) were printed in a checkerboard-like layout (5×5=25 spots) onto the silanized platforms. A GMS 417 ring-pin arrayer was used for the printing (Genetic Microsystems, Boston, Mass.). The concentration of the oligonucleotides used as capture molecules was 100 nmol/ml. Diameter of the spots was 125 micrometer with 500 micrometer centre-to-centre distance. The 2 oligonucleotides were called cPM (“capture perfect match”) and cMM (“capture mismatch”) and differ only in one base:
cPM and cMM were labeled with an amino group at the 5′ end which enables covalent binding of the oligonucleotides to the epoxy-functionalized platforms. […] Next day the chips were dried and then washed with 1 ml of aqueous 50% urea solution. Alternatively, an aqueous bovine serum albumine solution (BSA, 1 mg/ml) was used. After blocking the chips were flushed with deionized water and then dried with nitrogen flow. c. Detection Set-Up The CCD set-up described in the previous example was used. d. Chip Cartridge The cartridge described in the previous example was used. e. Analytes/Samples […]
The concentration of the analyte solutions was 30 pM each. f. […] After 30 min of incubation, the platform was washed with 1 ml of HB and a fluorescence image (“PM” in FIG. 9a) was taken in the resonance position of the chip. Subsequently, the bound fluorescence labeled oligonucleotides were removed (stripped) by injection of 2×1 ml of an aqueous 50% urea solution with 2 min of delay between the injections. After additional 2 min the chip was washed by injection of 2×1 ml HB with 2 min delay between the injections and a fluorescence image (“regeneration” in FIG. 9b) was taken in the resonance position of the chip. […] After 30 min of incubation, the platform was again washed with 1 ml of 1B and a fluorescence image (“MM” in FIG. 9c) was taken in the resonance position of the chip. […] Data Processing The mean intensity of the 2 different groups of capture spots (cPM and cMM) was calculated for both experiments (incubation of 30 pM PM analyte and 30 pM MM analyte). In addition, the difference of the mean intensity cPM-cMM and the ratio cPM/cMM was calculated. h. […]

Molecule: CCC1(c2ccccc2)C(=O)NC(=O)NC1=O [phenobarbital, sodium salt]
- Fold change GAPDH (rat) [1]: 2.3
- Fold change CYP 450 1A1 (rat) [2]: 1.6
- Fold change CYP 450 4A1 (rat) [3]: 1.6
- Fold change CYP 450 2B2 (rat) [4]: 32
- Fold change CYP 450 3A2 (rat) [5]: 2.5
- Fold change CYP 450 2B1 EST.(rat) [6]: 16
- Fold change CYP 450 3A1 (human) [7]: 3.2
- Fold change β-actin (rat) [8]: 2.1
- Fold change CYP 450 2B1 (rat) [9]: 25

Molecule: Cy5-5′GTGTTAAGGTGT3′ (NTGTTAAGGTGT; 5' {Cy5}, sugars by position, backbone and the base at N not given here) [PM]
- mean intensity, cPM spots [10]: 1140 counts
- mean intensity, cMM spots [11]: 24 counts
- difference of the mean intensity cPM − cMM [12]: 1116 counts
- ratio cPM/cMM of mean intensity [12]: 48

Molecule: Cy5-5′GTGTTGAGGTGT3′ (NTGTTGAGGTGT; 5' {Cy5}, sugars by position, backbone and the base at N not given here) [MM]
- mean intensity, cPM spots [10]: 704 counts
- mean intensity, cMM spots [11]: 2075 counts
- difference of the mean intensity cPM − cMM [12]: −1371 counts
- ratio cPM/cMM of mean intensity [12]: 0.34
